# Experimental data published in US9499509B2, “Dihydrochalcone derivatives and their use as antibiotic agents” (UNIVERSITÉ DU QUÉBEC À CHICOUTIMI, priority 2012, dated 2016).
# Like-named read-outs stand apart in the source and are kept apart here.
# Legend:
# Streptococcus pneumoniae = assay: Antibiotic assay (resazurin, Example 1), Streptococcus pneumoniae; type: cell-based; conditions: for IC50: read-out: IC50
# Experimental: (§1) Bacteria Strain. […] The MRSA were obtained as further described below.
# (§2) Antibiotic agents. Cyprofloxacin and erythromycin were provided by Sigma-Aldrich. Gentamicin sulfate and vancomycin hydrochloride were provided by Calbiochem.
# (§3) Five additional strains were tested: Streptococcus pneumoniae, Streptococcus agalactiae, Streptococcus pyogenes, Enterococcus faecalis and Corynebacterium jeikeium.
# Enterococcus faecalis = assay: Antibiotic assay (resazurin, Example 1), Enterococcus faecalis; type: cell-based; conditions: for IC50: read-out: IC50
# Experimental: as §1, §2, §3
# Streptococcus pyogenes = assay: Antibiotic assay (resazurin, Example 1), Streptococcus pyogenes; type: cell-based; conditions: for IC50: read-out: IC50
# Experimental: as §1, §2, §3
# S. epidermidis = assay: Antibiotic assay (resazurin, Example 1), S. epidermidis strains
# Experimental: The antibiotic assays were performed in 96-well plates (BD Falcon). The bacteria strains were inoculated in Nutrient Broth (BD) for the gram negative bacteria and Tryptic soy broth (BD) with 10% of defibrinated sheep blood (PML microbiological) for gram positive strain. All bacteria strains were dosed by spectrophotometry at 660 nm where 1 D.O=2×10^8 bacteria/mL. All bacteria were plated in their respective broth at a concentration of 450 000 bacteria/mL.
# Compounds I, II and III were diluted in methanol and the above-noted antibiotic agents were diluted in water. The solvent concentration was 0.25%, which was not toxic for the bacteria. Compounds I, II and III and the above-noted antibiotic agents were tested at 8 different concentrations.
# Each well contained: 100 μL of bacteria, 50 μL of the compounds tested (compound I, II, III or the above-noted antibiotic agent) and 50 μL of a 4% resazurin (Sigma) solution. The plates were incubated at 37° C. for 5 h. The fluorescence was read using a Fluoroskan Ascent™ FL (thermo) using an excitation wavelength of 530 nm and an emission wavelength of 590 nm.
# Two different strains of Staphylococcus were tested, namely the S. epidermidis and the S. aureus strains.
# S. aureus = assay: Antibiotic assay (resazurin, Example 1), S. aureus strains of Table 3; type: cell-based, Staphylococcus aureus; conditions: for IC50: read-out: IC50
# Description: as §1, §2
# Corynebacterium jeikeium = assay: Antibiotic assay (resazurin, Example 1), Corynebacterium jeikeium; type: cell-based; conditions: Coryne. jeikeium 14139
# Experimental: as §1, §2, §3
# E. coli (ATCC25922) = assay: Antibiotic assay of extracts and fractions (resazurin, Example 6), E. coli; type: cell-based
# Description: (§4) Antibiotic agents. Gentamicin sulfate was provided by Calbiochem.
# MRSAs (1, 2 and 3) = assay: Antibiotic assay of extracts and fractions (resazurin, Example 6), MRSA 1, 2 and 3; type: cell-based, Staphylococcus aureus
# Description: as §4
# Streptococcus agalactiae = assay: Antibiotic assay (resazurin, Example 1), Streptococcus agalactiae; type: cell-based; conditions: for IC50: read-out: IC50
# Experimental: as §1, §2, §3
# [1] = tested on: S. aureus wild type strain (ATCC25923); assay: Antibiotic assay of extracts and fractions (resazurin, Example 6), S. aureus wild type; type: cell-based, Staphylococcus aureus; conditions: S. aureus WT
# Description: as §4
# [2] = tested on: S. aureus wild type strain (ATCC 25923); assay: Antibiotic assay (absorption 660 nm, Example 2), S. aureus wild type; type: cell-based, Staphylococcus aureus; conditions: for MIC: S. aureus WT (ATCC 25923); for S. aureus WT ATCC 25923 (toxicity on bacteria): Table 7, same values as MIC of Table 6
# Experimental: (§5) Antibiotic agents. Gentamicin sulfate was provided by Calbiochem. Chloramphenicol was provided by Sigma-Aldrich.
# (§6) Antibiotic assay. […] The bacteria strains were inoculated in nutrients broth. […] All bacteria were plated in nutrients broth at a concentration of 450 000 bacteria/m L.
# (§7) Compounds IV to XXI were diluted in dimethylsulfoxide. […] The compounds were tested at 8 different concentrations.
# (§8) Each well contained: 100 μL of bacteria, 100 μL of the compounds tested. The plates were incubated at 37° C. for 6 h. The absorption was read using a Varioskan flash multimode Reader™ (Thermo Scientific) at 660 nm.
# (§9) MRSA. Ten (10) strains of MRSA obtained as described above were tested along with an S. aureus wild type (WT) strain (ATCC 25923).
# WS-1 cell lines = assay: Cytotoxicity assay on WS-1 (Example 2); type: cell-based; design: unit not given here; conditions: Table 7; WS-1, 48 h
# Experimental: Cytotoxicity assay. […] The WS-1 cell lines were provided by ATCC. […] The compounds tested were then added at 8 different concentrations. […] In Table 7, the therapeutic indexes of compounds IV to XXI are presented.
# MRSA strains = assay: Antibiotic assay (absorption 660 nm, Example 2), MRSA strains; type: cell-based, Staphylococcus aureus
# Experimental: as §5, §6, §7, §8, §9
molecule,measurement,setting,value
Gentamicin sulfate [reference compound],Minimum Inhibitory Concentration (MIC),Streptococcus pneumoniae; Strep. pneumoniae 14070,(>20) μM
same,IC50,Streptococcus pneumoniae; Strep. pneumoniae 14070,4000 ± 2000 nM
same,Minimum Inhibitory Concentration (MIC),Streptococcus pneumoniae; Strep. pneumoniae 14112,(>20) μM
same,IC50,Streptococcus pneumoniae; Strep. pneumoniae 14112,> 20000 nM
same,Minimum Inhibitory Concentration (MIC),Streptococcus pneumoniae; Strep. pneumoniae 14138,(>20) μM
same,IC50,Streptococcus pneumoniae; Strep. pneumoniae 14138,> 20000 nM
same,Minimum Inhibitory Concentration (MIC),Streptococcus pneumoniae; Strep. pneumoniae 14144,(>20) μM
same,IC50,Streptococcus pneumoniae; Strep. pneumoniae 14144,> 20000 nM
same,Minimum Inhibitory Concentration (MIC),Streptococcus pneumoniae; Strep. pneumoniae 14148,(>20) μM
same,IC50,Streptococcus pneumoniae; Strep. pneumoniae 14148,> 20000 nM
same,Minimum Inhibitory Concentration (MIC),Enterococcus faecalis; Ent. Faecalis 14078,(>20) μM
same,IC50,Enterococcus faecalis; Ent. Faecalis 14078,11000 ± 1000 nM
same,Minimum Inhibitory Concentration (MIC),Enterococcus faecalis; Ent. Faecalis 14115,(>20) μM
same,IC50,Enterococcus faecalis; Ent. Faecalis 14115,> 20000 nM
same,Minimum Inhibitory Concentration (MIC),Streptococcus pyogenes; Strep. pyogenes 14149,(>20) μM
same,IC50,Streptococcus pyogenes; Strep. pyogenes 14149,> 20000 nM
same,Minimum Inhibitory Concentration (MIC),Streptococcus pyogenes; Strep. pyogenes 14152,(>20) μM
same,IC50,Streptococcus pyogenes; Strep. pyogenes 14152,> 20000 nM
same,IC50,S. epidermidis; S. epidermidis 14069,< 6 nM
same,Minimum Inhibitory Concentration (MIC),S. epidermidis; S. epidermidis 14069,(2.51) μM
same,IC50,S. epidermidis; S. epidermidis 14085,< 6 nM
same,Minimum Inhibitory Concentration (MIC),S. epidermidis; S. epidermidis 14085,(1.19) μM
same,IC50,S. epidermidis; S. epidermidis 14093,< 6 nM
same,Minimum Inhibitory Concentration (MIC),S. epidermidis; S. epidermidis 14093,(1.25) μM
same,IC50,S. epidermidis; S. epidermidis 14134,130 ± 10 nM
same,Minimum Inhibitory Concentration (MIC),S. epidermidis; S. epidermidis 14134,(0.8) μM
same,IC50,S. epidermidis; S. epidermidis 14143,200 ± 30 nM
same,Minimum Inhibitory Concentration (MIC),S. epidermidis; S. epidermidis 14143,(>2) μM
same,Minimum Inhibitory Concentration (MIC),S. aureus; S. aureus 14094,(0.04) μM
same,IC50,S. aureus; S. aureus 14094,< 6 nM
same,Minimum Inhibitory Concentration (MIC),S. aureus; S. aureus 14108,(0.05) μM
same,IC50,S. aureus; S. aureus 14108,16 ± 3 nM
same,Minimum Inhibitory Concentration (MIC),S. aureus; S. aureus 14118,(0.02) μM
same,IC50,S. aureus; S. aureus 14118,8 ± 1 nM
same,Minimum Inhibitory Concentration (MIC),S. aureus; S. aureus 14154,(0.04) μM
same,IC50,S. aureus; S. aureus 14154,< 16 nM
same,Minimum Inhibitory Concentration (MIC),Corynebacterium jeikeium,(9.1) μM
same,IC50,Corynebacterium jeikeium; read-out: IC50,920 ± 70 nM
same,IC50,E. coli (ATCC25922),9 ± 1 ng/mL
same,MIC,E. coli (ATCC25922),19 ng/mL
same,IC50,"MRSAs (1, 2 and 3); MRSA 1",<5 ng/mL
same,MIC,"MRSAs (1, 2 and 3); MRSA 1",<5 ng/mL
same,IC50,"MRSAs (1, 2 and 3); MRSA 2",<5 ng/mL
same,MIC,"MRSAs (1, 2 and 3); MRSA 2",<5 ng/mL
same,IC50,"MRSAs (1, 2 and 3); MRSA 3",6 ± 0.4 ng/mL
same,MIC,"MRSAs (1, 2 and 3); MRSA 3",19 ng/mL
same,Minimum Inhibitory Concentration (MIC),Streptococcus agalactiae; Strep. agalactiae 14150,(>20) μM
same,IC50,Streptococcus agalactiae; Strep. agalactiae 14150,> 20000 nM
same,Minimum Inhibitory Concentration (MIC),Streptococcus agalactiae; Strep. agalactiae 14151,(>20) μM
same,IC50,Streptococcus agalactiae; Strep. agalactiae 14151,> 20000 nM
same,Minimum Inhibitory Concentration (MIC),Streptococcus agalactiae; Strep. agalactiae 14153,(>20) μM
same,IC50,Streptococcus agalactiae; Strep. agalactiae 14153,> 20000 nM
same,IC50,[1],<5 ng/mL
same,MIC,[1],<5 ng/mL
COc1ccc(CCC(=O)c2c(O)cc(O)c3c2O[C@@H](c2ccc(O)cc2)CC3)cc1 [IX],MIC,[2],8.0 ± 0.3 µM
same,S. aureus WT ATCC 25923 (toxicity on bacteria),[2],8.0 ± 0.3
same,"WS-1 (toxicity on normal cells, fibroblast)",WS-1 cell lines,>50
same,MIC,MRSA strains; MRSA 1,7.7 ± 0.3 µM
same,MIC,MRSA strains; MRSA 2,9 ± 1 µM
same,MIC,MRSA strains; MRSA 3,6.25 ± 0.06 µM
same,MIC,MRSA strains; MRSA 4,6.7 ± 0.2 µM
same,MIC,MRSA strains; MRSA 5,6.9 ± 0.4 µM
same,MIC,MRSA strains; MRSA 6,7.1 ± 0.9 µM
same,MIC,MRSA strains; MRSA 7,5.2 ± 0.4 µM
same,MIC,MRSA strains; MRSA 8,4.9 ± 0.2 µM
same,MIC,MRSA strains; MRSA 9,3.7 ± 0.2 µM
same,MIC,MRSA strains; MRSA 10,7.5 ± 0.7 µM
COc1ccc(CCC(=O)c2c(O)cc(O)c3c2OC(c2ccc(O)cc2)C(O)C3)cc1 (centres unmarked) [XXI],MIC,[2],28 ± 2 µM
same,S. aureus WT ATCC 25923 (toxicity on bacteria),[2],28 ± 2
same,"WS-1 (toxicity on normal cells, fibroblast)",WS-1 cell lines,>50
same,MIC,MRSA strains; MRSA 1,17 ± 2 µM
same,MIC,MRSA strains; MRSA 2,7 ± 2 µM
same,MIC,MRSA strains; MRSA 3,8.5 ± 0.6 µM
same,MIC,MRSA strains; MRSA 4,12.3 ± 0.5 µM
same,MIC,MRSA strains; MRSA 5,7.7 ± 0.6 µM
same,MIC,MRSA strains; MRSA 6,12 ± 1 µM
same,MIC,MRSA strains; MRSA 7,11.4 ± 0.5 µM
same,MIC,MRSA strains; MRSA 8,8.2 ± 0.2 µM
same,MIC,MRSA strains; MRSA 9,10.8 ± 0.8 µM
same,MIC,MRSA strains; MRSA 10,12 ± 1 µM
